Measured values: ChEMBL document CHEMBL1641547, “Biologically active constituents from the fruiting body of Taiwanofungus camphoratus” (Bioorg Med Chem, 2011)
pIC50: −log10 of the molar value. In brackets after ≈: the same amount, converted by molar mass.

What was measured:
Daoy = assay: Cytotoxicity against human DaOY cells after 3 days by MTT assay; format: functional; details: 72 h, read-out: ED50 (the source's name)
HEp-2 = assay: Cytotoxicity against human Hep2 cells after 3 days by MTT assay; format: functional; details: HEp-2, 72 h, read-out: ED50 (the source's name)
MCF7 = assay: Cytotoxicity against human MCF7 cells after 3 days by MTT assay; format: functional; details: MCF7, 72 h, read-out: ED50 (the source's name)
HeLa = assay: Cytotoxicity against human HeLa cells after 3 days by MTT assay; format: functional; details: 72 h, read-out: ED50 (the source's name)
[1] = Inhibition of NOX in fMLP-induced PMN cells assessed as ROS production
[2] = target: T1, Nitric oxide synthase, inducible (Mus musculus, UniProt P29477); assay: Inhibition of iNOS in mouse BV2 microglial cells assessed as NO production; format: cell-based
T1 sequence (P29477 whole entry): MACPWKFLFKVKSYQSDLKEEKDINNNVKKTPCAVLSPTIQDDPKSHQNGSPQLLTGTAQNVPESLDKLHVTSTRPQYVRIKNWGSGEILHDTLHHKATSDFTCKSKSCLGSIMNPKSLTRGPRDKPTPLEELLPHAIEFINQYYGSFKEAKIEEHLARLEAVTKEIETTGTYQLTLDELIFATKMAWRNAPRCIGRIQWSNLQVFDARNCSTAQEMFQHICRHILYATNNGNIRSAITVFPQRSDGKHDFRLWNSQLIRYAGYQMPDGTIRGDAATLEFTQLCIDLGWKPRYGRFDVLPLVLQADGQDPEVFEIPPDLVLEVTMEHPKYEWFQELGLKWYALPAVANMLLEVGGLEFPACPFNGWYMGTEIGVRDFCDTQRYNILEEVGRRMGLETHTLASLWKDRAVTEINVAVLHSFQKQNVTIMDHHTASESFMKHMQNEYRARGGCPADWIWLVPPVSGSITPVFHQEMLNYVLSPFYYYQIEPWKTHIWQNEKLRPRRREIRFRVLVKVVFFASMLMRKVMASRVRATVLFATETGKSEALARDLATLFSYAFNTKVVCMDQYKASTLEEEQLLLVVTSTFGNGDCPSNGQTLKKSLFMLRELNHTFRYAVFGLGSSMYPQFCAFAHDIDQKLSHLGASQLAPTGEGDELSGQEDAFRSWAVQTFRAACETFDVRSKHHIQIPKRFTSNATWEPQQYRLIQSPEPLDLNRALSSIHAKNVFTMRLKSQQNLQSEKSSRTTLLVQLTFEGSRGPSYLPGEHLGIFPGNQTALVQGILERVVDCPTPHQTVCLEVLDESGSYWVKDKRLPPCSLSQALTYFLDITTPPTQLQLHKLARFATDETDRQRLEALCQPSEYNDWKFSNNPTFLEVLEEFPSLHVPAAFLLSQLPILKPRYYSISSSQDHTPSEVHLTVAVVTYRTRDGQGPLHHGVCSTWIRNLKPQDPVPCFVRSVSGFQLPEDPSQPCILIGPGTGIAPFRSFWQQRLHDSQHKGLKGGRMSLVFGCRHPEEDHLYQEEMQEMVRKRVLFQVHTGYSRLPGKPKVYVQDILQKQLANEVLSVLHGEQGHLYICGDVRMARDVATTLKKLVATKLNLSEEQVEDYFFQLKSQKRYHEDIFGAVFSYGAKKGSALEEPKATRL

[3] = Inhibition of mouse NOX activity in NADPH-induced mouse BV2 microglial cells assessed as ROS production; details: BV-2

Compound | EC50 (Daoy) [µg/mL] | EC50 (HEp-2) [µg/mL] | EC50 (MCF7) [µg/mL] | EC50 (HeLa) [µg/mL] | pIC50 [1] | pIC50 [2] | pIC50 [3]
COc1cc(C)c(OC)c2c1OCO2 | > 20 | > 20 | > 20 | > 20 | 4.70 | – | –
COc1c(C)c(-c2c(C)c(OC)c3c(c2OC)OCO3)c(OC)c2c1OCO2 | > 20 | > 20 | > 20 | > 20 | 4.81 | – | –
OC1O[C@@H](c2ccc3c(c2)OCO3)[C@@H]2CO[C@@H](c3ccc4c(c3)OCO4)[C@H]12 (stereo not given in full) [4-HYDROXYSESAMIN] | > 20 | > 20 | > 20 | > 20 | – | – | –
C=C(CC[C@@H](C)[C@H]1CC[C@H]2C3=C(C(=O)C[C@]12C)[C@@]1(C)CCC(=O)[C@@H](C)[C@@H]1CC3)C(C)C(=O)O (stereo not given in full) [ANTCIN A] | 13.2 (≈ 29 µM) | > 20 | 13.3 (≈ 29.3 µM) | > 20 | 4.53 | 5.39 | –
C=C(CC[C@@H](C)[C@H]1CC[C@H]2C3=C(C(=O)C[C@]12C)[C@@]1(C)CC[C@@H](O)[C@](C)(O)[C@@H]1C[C@@H]3O)C(C)C(=O)O (stereo not given in full) [ANTCIN K] | > 20 | > 20 | > 20 | > 20 | 4.33 | – | –
C=C(C)C#Cc1c(OC)cc(OC)c(OC)c1C [ANTROCAMPHIN A] | 5.9 (≈ 24 µM) | 10.5 (≈ 42.6 µM) | 3.4 (≈ 13.8 µM) | 6.9 (≈ 28 µM) | 4.82 | 5.14 | 4.30
C=C(C)C#Cc1c(C)c(OC)c(OC)c2c1OCO2 [BENZOCAMPHORIN B] | – | – | – | – | 4.84 | – | –
C=C(CC[C@@H](C)[C@H]1CC[C@H]2C3=C(C(=O)C[C@]12C)[C@@]1(C)CC[C@@H](O)[C@@H](C)[C@@H]1C[C@@H]3O)C(C)C(=O)O (stereo not given in full) [CAMPHORATIN B] | – | – | – | – | 4.49 | 4.80 | –
C=C(CC[C@@H](C)[C@H]1CC[C@H]2C3=C(C(=O)C[C@]12C)[C@@]1(C)CCC(=O)[C@@H](C)[C@@H]1C[C@@H]3O)C(C)C(=O)O (stereo not given in full) [CAMPHORATIN D] | > 20 | > 20 | > 20 | > 20 | 4.65 | 5.38 | –
C=C(CC[C@@H](C)[C@H]1CC[C@H]2C3=C(C(=O)C[C@]12C)[C@@]1(C)CC[C@@H](O)[C@@H](C)[C@@H]1CC3=O)C(C)C(=O)OC (stereo not given in full) [CAMPHORATIN E] | 5.2 (≈ 10.7 µM) | 7 (≈ 14.4 µM) | 6.6 (≈ 13.6 µM) | 9 (≈ 18.6 µM) | – | – | –
C=C(CC[C@@H](C)[C@H]1CC[C@H]2C3=C(C(=O)C[C@]12C)[C@@]1(C)CCC(=O)[C@@H](C)[C@@H]1C[C@@H]3O)C(C)C(=O)OC (stereo not given in full) [CAMPHORATIN F] | 4.4 (≈ 9.08 µM) | 3 (≈ 6.19 µM) | 7.9 (≈ 16.3 µM) | 8.9 (≈ 18.4 µM) | 4.95 | 5.60 | –
C[C@H](/C=C/[C@H](C)[C@H](C)CO)[C@H]1CC[C@H]2C3=CC[C@H]4CC(=O)CC[C@]4(C)[C@H]3CC[C@]12C [CAMPHORATIN I] | – | – | – | – | 4.76 | 4.90 | –
C=C(CC[C@@H](C)[C@H]1CC[C@@H]2C3=C(C(=O)C[C@@]21C)[C@@]1(C)CCC(=O)[C@@H](C)[C@@H]1CC3)C(C)C(=O)OC (stereo not given in full) [CAMPHORATIN J] | > 20 | > 20 | 8.7 (≈ 18.6 µM) | 11.3 (≈ 24.1 µM) | 4.80 | 5.80 | –
CC(C)[C@@H](C)/C=C/[C@@H](C)[C@H]1CC[C@@H]2[C@]1(C)CC[C@H]1[C@]23C=C[C@]2(C[C@@H](O)CC[C@]12C)OO3 [ERGOSTEROL PEROXIDE] | – | – | – | – | 4.69 | – | –
CC(C)[C@@H](C)/C=C/[C@@H](C)[C@H]1CC[C@H]2C3=CC=C4C[C@@H](O)CC[C@]4(C)[C@H]3CC[C@]12C [ERGOSTEROL] | – | – | – | – | 4.55 | 4.51 | –
C=C(CC[C@@H](C)[C@H]1CC[C@H]2C3=C(C[C@H](O)[C@]12C)[C@@]1(C)CC[C@@H](O)[C@@H](C)[C@@H]1CC3=O)C(C)C(=O)OC (stereo not given in full) [METHYL ANTCINATE H] | > 20 | > 20 | > 20 | > 20 | 4.74 | 5.60 | –
C=C(CC[C@@H](C)[C@H]1CC[C@H]2C3=C(C(=O)C[C@]12C)[C@@]1(C)CCC(=O)[C@@H](C)[C@@H]1CC3)C(C)C(=O)OC (stereo not given in full) [METHYLANTCINATE A] | > 20 | > 20 | > 20 | > 20 | 4.79 | 5.82 | –
c1cc2c(cc1[C@H]1OC[C@H]3[C@@H]1CO[C@@H]3c1ccc3c(c1)OCO3)OCO2 [SESAMIN] | > 20 | > 20 | > 20 | > 20 | – | – | –
C=C(CC[C@@H](C)[C@H]1CC[C@H]2C3=C(C(=O)C[C@]12C)[C@@]1(C)CCC(=O)[C@@H](C)[C@@H]1CC3=O)C(C)C(=O)OC (stereo not given in full) [ZHANKUIC ACID A METHYL ESTER] | > 20 | > 20 | > 20 | > 20 | 5.08 | 6.22 | –
C=C(CC[C@@H](C)[C@H]1CC[C@H]2C3=C(C(=O)C[C@]12C)[C@@]1(C)CCC(=O)[C@@H](C)[C@@H]1CC3=O)C(C)C(=O)O (stereo not given in full) [ZHANKUIC ACID A] | > 20 | 16.6 (≈ 35.4 µM) | > 20 | > 20 | 4.66 | 5.44 | –
C=C(CC[C@@H](C)[C@H]1CC[C@H]2C3=C(C(=O)C[C@]12C)[C@@]1(C)CC[C@@H](O)[C@@H](C)[C@@H]1CC3=O)C(C)C(=O)O (stereo not given in full) [ZHANKUIC ACID B] | > 20 | > 20 | > 20 | > 20 | – | 5.02 | –
C=C(CC[C@@H](C)[C@H]1CC[C@H]2C3=C(C(=O)[C@H](O)[C@]12C)[C@@]1(C)CC[C@@H](O)[C@@H](C)[C@@H]1CC3=O)C(C)C(=O)O (stereo not given in full) [ZHANKUIC ACID C] | > 20 | > 20 | > 20 | > 20 | – | 4.79 | –
